In patent US20170166598A1, “HETEROARYL COMPOUNDS FOR KINASE INHIBITION” (ARIAD PHARMACEUTICALS, INC., priority 2014, published 2017):

Tests used:
Assay type in all cases: cell-based
[1] = target: T1, human EGFR exon 20 insertion ASV (V769_D770insASV) (Homo sapiens, UniProt P00533, INS769ASV); experiment: Ba/F3-EGFR-Exon20-ASV cell anti-proliferative assay (CellTiter 96 MTS, 72 h); conditions: Ba/F3-EGFR-Exon20-ASV cells
T1 construct: expressed in transfected cells; host or cells: Ba/F3 (murine pro-B) cells transduced with lentivirus from pLVX-IRES puro
T1 sequence (P00533 with tags, fused parts or gaps INS769ASV): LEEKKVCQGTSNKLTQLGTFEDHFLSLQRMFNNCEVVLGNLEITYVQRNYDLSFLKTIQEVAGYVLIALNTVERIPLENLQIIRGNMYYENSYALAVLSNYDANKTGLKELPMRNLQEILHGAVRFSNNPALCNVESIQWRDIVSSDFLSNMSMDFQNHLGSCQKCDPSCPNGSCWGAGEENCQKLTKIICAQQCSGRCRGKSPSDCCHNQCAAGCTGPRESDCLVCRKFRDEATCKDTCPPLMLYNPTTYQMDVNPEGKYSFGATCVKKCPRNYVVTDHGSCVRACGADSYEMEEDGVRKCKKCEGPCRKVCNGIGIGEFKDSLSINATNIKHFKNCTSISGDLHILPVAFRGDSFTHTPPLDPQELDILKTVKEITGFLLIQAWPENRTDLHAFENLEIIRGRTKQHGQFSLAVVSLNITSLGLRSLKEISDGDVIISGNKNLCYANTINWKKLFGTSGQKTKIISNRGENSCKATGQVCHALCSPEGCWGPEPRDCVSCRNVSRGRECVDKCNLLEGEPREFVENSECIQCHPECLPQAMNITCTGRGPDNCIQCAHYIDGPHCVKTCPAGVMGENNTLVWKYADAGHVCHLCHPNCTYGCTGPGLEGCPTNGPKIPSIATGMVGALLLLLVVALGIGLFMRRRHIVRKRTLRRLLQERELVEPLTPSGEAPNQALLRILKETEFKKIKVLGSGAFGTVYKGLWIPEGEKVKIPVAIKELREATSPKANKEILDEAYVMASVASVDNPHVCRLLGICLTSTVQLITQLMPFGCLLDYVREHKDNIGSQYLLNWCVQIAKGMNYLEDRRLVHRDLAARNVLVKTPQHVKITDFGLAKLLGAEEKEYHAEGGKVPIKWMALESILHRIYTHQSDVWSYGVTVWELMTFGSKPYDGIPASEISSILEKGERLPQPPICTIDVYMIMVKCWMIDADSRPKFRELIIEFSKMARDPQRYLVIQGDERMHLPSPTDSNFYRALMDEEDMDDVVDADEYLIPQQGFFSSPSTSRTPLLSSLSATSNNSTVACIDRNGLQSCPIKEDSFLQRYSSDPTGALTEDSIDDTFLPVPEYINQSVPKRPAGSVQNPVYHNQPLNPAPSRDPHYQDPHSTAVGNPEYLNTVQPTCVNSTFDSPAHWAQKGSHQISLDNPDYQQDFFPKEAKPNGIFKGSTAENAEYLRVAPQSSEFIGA
Procedure, shortened: (§1)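 Viable-cell readout used absorbance at 490 nm of MTS-derived formazan, 2 h after reagent addition, following 72 h compound treatment at 37 °C, 5% CO2. Cells: puromycin-selected, IL-3-depleted Ba/F3 expressing EGFR exon 20 ASV or NPG; dosing 4-fold series from 10,000 nM.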

[2] = target: T2, human EGFR exon 20 insertion NPG (H773_V774insNPG) (Homo sapiens, UniProt P00533, INS772GNP); experiment: Ba/F3-EGFR-Exon20-NPG cell anti-proliferative assay (CellTiter 96 MTS, 72 h); conditions: Ba/F3-EGFR-Exon20-NPG cells
T2 construct: expressed in transfected cells; host or cells: Ba/F3 (murine pro-B) cells transduced with lentivirus from pLVX-IRES puro
T2 sequence (P00533 with tags, fused parts or gaps INS772GNP): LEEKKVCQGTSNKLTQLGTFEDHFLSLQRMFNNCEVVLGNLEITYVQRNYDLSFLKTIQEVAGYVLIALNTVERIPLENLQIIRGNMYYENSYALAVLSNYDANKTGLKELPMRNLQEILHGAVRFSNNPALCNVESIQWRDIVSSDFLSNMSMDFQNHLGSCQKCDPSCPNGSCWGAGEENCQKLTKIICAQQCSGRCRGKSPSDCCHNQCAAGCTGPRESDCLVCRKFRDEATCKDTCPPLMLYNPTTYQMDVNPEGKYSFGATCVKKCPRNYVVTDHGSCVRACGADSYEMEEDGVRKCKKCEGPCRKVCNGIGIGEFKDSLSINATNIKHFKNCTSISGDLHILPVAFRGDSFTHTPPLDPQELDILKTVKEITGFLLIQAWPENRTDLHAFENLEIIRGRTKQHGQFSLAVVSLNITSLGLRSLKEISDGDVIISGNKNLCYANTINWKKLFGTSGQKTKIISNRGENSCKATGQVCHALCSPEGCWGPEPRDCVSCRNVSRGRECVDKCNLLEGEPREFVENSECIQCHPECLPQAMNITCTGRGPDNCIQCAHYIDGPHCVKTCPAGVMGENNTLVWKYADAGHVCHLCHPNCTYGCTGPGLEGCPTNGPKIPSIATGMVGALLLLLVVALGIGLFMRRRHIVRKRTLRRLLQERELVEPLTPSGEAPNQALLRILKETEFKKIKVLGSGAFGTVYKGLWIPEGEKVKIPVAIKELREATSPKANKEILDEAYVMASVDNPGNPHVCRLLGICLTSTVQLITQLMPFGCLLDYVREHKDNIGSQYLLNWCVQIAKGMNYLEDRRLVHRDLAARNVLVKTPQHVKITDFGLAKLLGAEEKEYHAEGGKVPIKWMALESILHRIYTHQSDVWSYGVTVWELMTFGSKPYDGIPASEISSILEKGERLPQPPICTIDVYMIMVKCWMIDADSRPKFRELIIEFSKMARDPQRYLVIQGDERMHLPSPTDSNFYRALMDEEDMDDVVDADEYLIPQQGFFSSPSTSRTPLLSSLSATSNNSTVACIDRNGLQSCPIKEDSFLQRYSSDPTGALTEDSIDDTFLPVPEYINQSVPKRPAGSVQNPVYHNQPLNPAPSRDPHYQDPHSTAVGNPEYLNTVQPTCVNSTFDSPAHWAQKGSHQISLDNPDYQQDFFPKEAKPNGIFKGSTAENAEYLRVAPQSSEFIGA
Procedure, shortened: as §1

[3] = target: T3, human EGFR E746-A750 deletion and T790M Mutation (Homo sapiens, UniProt P00533, DEL746-750/T790M); experiment: Ba/F3-EGFR-Del/T790M cell anti-proliferative assay (CellTiter 96 MTS, 72 h); conditions: Ba/F3-EGFR-Del/T790M cells
T3 construct: expressed in transfected cells; host or cells: Ba/F3 (murine pro-B) cells transduced with lentivirus from pLVX-IRES puro
T3 sequence (P00533 with tags, fused parts or gaps DEL746-750/T790M): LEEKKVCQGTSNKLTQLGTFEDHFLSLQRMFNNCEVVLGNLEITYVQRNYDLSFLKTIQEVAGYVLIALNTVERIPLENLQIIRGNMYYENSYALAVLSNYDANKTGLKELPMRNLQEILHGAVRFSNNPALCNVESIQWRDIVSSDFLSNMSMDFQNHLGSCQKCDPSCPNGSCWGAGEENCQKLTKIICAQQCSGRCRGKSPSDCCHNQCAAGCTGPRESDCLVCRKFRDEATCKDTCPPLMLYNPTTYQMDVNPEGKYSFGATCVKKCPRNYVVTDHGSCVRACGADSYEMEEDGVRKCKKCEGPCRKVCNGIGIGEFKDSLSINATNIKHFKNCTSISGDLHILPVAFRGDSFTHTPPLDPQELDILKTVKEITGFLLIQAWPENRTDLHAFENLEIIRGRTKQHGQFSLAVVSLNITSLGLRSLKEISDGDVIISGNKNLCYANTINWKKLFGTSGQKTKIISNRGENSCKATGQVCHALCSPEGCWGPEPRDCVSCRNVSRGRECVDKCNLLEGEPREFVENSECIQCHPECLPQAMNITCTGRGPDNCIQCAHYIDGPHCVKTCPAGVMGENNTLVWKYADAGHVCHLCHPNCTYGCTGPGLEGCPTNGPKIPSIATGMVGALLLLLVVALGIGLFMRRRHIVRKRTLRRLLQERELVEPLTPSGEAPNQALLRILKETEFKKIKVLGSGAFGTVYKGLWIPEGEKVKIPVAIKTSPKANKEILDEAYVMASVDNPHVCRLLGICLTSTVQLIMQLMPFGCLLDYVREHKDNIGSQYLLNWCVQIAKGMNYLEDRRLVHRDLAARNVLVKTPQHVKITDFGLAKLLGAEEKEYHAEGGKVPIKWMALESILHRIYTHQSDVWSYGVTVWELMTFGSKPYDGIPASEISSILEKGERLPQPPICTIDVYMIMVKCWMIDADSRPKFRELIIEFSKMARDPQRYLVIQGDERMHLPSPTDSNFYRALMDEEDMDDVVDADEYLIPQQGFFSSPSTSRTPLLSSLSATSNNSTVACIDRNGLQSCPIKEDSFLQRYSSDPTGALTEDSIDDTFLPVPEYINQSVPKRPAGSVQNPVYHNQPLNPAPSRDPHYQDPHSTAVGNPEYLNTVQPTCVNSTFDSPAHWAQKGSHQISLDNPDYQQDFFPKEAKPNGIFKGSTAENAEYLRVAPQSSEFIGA
Procedure, shortened: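 Compound exposure: 72 h, 37 °C, 4-fold series topping at 10,000 nM. Target cells are Ba/F3 transduced with EGFR exon 19 deletion plus T790M, selected by puromycin and IL-3 withdrawal. Viable cell number inferred from MTS metabolic conversion, A490 read 2 h after reagent addition.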

[4] = target: T4, human EGFR L858R and T790M double mutation (Homo sapiens, UniProt P00533, L858R/T790M); experiment: Ba/F3-EGFR L858R/T790M cell anti-proliferative assay (CellTiter 96 MTS, 72 h); conditions: Ba/F3-EGFR L858R/T790M cells
T4 construct: expressed in transfected cells; host or cells: Ba/F3 (murine pro-B) cells transduced with lentivirus from pLVX-IRES puro
T4 sequence (P00533 25-1210 T790M/L858R): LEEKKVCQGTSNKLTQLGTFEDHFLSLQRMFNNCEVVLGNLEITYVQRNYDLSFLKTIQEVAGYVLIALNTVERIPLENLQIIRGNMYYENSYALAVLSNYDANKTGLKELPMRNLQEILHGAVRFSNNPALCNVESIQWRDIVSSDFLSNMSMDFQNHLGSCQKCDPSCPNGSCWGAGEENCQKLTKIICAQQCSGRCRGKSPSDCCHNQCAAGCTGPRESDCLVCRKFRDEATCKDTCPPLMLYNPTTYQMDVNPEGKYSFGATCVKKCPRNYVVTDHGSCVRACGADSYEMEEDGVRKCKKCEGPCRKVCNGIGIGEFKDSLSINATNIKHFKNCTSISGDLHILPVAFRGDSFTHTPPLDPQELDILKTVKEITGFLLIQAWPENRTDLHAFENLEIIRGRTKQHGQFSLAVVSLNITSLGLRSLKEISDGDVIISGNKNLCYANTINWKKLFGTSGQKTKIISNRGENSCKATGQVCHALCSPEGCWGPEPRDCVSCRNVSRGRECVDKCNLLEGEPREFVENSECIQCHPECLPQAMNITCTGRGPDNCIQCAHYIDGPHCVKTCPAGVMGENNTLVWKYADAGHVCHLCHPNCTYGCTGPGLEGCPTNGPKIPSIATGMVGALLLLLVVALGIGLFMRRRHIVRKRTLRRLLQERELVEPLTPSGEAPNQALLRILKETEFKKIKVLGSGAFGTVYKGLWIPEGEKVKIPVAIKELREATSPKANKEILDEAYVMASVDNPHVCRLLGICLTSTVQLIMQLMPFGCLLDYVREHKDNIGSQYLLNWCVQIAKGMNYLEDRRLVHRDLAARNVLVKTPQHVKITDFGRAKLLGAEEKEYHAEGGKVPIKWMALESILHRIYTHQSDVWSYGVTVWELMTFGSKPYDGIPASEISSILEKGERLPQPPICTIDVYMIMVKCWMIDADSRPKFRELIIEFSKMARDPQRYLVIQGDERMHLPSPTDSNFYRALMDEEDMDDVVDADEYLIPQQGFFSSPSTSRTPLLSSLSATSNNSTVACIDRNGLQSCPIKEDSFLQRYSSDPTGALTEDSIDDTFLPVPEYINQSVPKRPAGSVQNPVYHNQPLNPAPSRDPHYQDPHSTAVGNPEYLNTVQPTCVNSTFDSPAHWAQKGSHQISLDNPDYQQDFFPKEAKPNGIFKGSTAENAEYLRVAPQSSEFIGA
Description: An expression vector, pLVX-IRES puro (Clontech) coding for human EGFR L858R and T790M double mutation, was transfected into HEK293 cells by the Trans-Lentiviral ORF Packaging System (Thermo Scientific), to produce virus encoding EGFR L858R and T790M double mutations. Ba/F3 (DSMZ) cells maintained in RPMI 1640 medium supplemented with 10% fetal bovine serum, 200 μM L-glutamine/l 200 μg/mL penicillin/200 μg/mL streptomycin (Life Technology) and 10 ng/mL IL-3 (R&D system), were infected by EGFR L858R and T790M double mutation virus and subsequently selected by puromycin (Life Technology) selection and IL-3 depletion. […] The anti-proliferative activity of compounds was determined as follows: BaF3-EGFR L858R/T790M cells seeded in 96 well plates (2500 cells/well) were treated with test compound (dissolved in DMSO) at a series of concentrations (4-fold dilution, top concentration: 10,000 nM). The plates were incubated for 72 h in a 37° C. incubator with 5% CO2, and the number of viable cells in each well were measured indirectly by CellTiter 96® Aqueous One Solution Cell Proliferation Assay (Promega; this assay is a colorimetric method for determining the number of viable cells through measurement of their metabolic activity by detection of enzymatic conversion of tetrazolium salts into blue formazan derivatives). Reagent (20 μL) was added into each well, and the plates were returned to the incubator for 2 h. The absorbance in each well was then measured at 490 nm using an Envision plate reader (Perkin Elmer).

[5] = target: T5, Her2 exon 20 YVMA insertion (A775_G776ins YVMA) (Homo sapiens, UniProt P04626, INS775YVMA); experiment: Ba/F3-Her2 Exon20 YVMA cell anti-proliferative assay (CellTiter 96 MTS, 72 h); conditions: Ba/F3-Her2 Exon20 YVMA cells
T5 construct: expressed in transfected cells; host or cells: Ba/F3 (murine pro-B) cells transduced with lentivirus from pLVX-IRES puro
Procedure, shortened: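 Anti-proliferation: compound series (top 10,000 nM, 4-fold steps) was applied to Ba/F3-Her2 Exon20 YVMA cells grown without IL-3 for 72 h. Viability was read colorimetrically (CellTiter 96 Aqueous One, A490, 2 h reagent incubation).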

Structure (SMILES) | IC50 [1] [nM] | IC50 [2] [nM] | IC50 [5] [nM] | EGFR exon 19 deletion and exon 20 T790M mutation IC50 [3] | EGFR exon 21 L858R and exon 20 T790M mutation IC50 [4]
C=CC(=O)Nc1cc(Nc2ncc(Cl)c(-c3cn4c5c(cccc35)CCC4)n2)c(Cl)cc1N(C)CCN(C)C [Example 12, N-(4-chloro-5-((5-chloro-4-(5,6-dihydro-4H-pyrrolo[3,2,1-ij]quinolin-1-yl)pyrimidin-2-yl)amino)-2-((2-(dimethylamino)ethyl)(methyl)amino)phenyl)acrylamide] |  | < 100 | 100 to 500 | A (IC50 value for the indicated mutant below about 100 nM) | A (IC50 value for the indicated mutant below about 100 nM)
C=CC(=O)Nc1cc(Nc2ncc(-c3nnc(C)o3)c(-c3cn4c5c(cccc35)CCC4)n2)c(OC)cc1N(C)CCN(C)C [Example 107] | < 100 | < 100 | < 100 | A (IC50 value for the indicated mutant below about 100 nM) | A (IC50 value for the indicated mutant below about 100 nM)
C=CC(=O)Nc1cc(Nc2ncc(Cl)c(-c3cn4c5c(cccc35)OCC4)n2)c(OC)cc1O[C@H](COCC)CN(C)C [Example 81, (S)-N-(5-((5-chloro-4-(2,3-dihydro-[1,4]oxazino[2,3,4-hi]indol-6-yl)pyrimidin-2-yl)amino)-2-((1-(dimethylamino)-3-ethoxypropan-2-yl)oxy)-4-methoxyphenyl)acrylamide] |  | < 100 | 100 to 500 | A (IC50 value for the indicated mutant below about 100 nM) | A (IC50 value for the indicated mutant below about 100 nM)
C=CC(=O)Nc1cc(Nc2nccc(-c3cn4c5c(cccc35)CCC4)n2)c(OC)cc1N(C)CCNC [Example 83, N-(5-((4-(5,6-dihydro-4H-pyrrolo[3,2,1-ij]quinolin-1-yl)pyrimidin-2-yl)amino)-4-methoxy-2-(methyl(2-(methylamino)ethyl)amino)phenyl)acrylamide] | 100 to 500 | < 100 | 100 to 500 | A (IC50 value for the indicated mutant below about 100 nM) | A (IC50 value for the indicated mutant below about 100 nM)
C=CC(=O)Nc1cc(Nc2ncc(Cl)c(-c3cn4c5c(cccc35)OCC4)n2)c(OC)cc1O[C@@H](COCC)CN(C)C [Example 80, (R)-N-(5-((5-chloro-4-(2,3-dihydro-[1,4]oxazino[2,3,4-hi]indol-6-yl)pyrimidin-2-yl)amino)-2-((1-(dimethylamino)-3-ethoxypropan-2-yl)oxy)-4-methoxyphenyl)acrylamide] |  | < 100 | 100 to 500 | A (IC50 value for the indicated mutant below about 100 nM) | A (IC50 value for the indicated mutant below about 100 nM)
C=CC(=O)Nc1cc(Nc2ncc(Cl)c(-c3cn4c5c(cccc35)CCC4)n2)c(OC)cc1O[C@H](COCC)CN(C)C [Example 23, (S)-N-(5-((5-chloro-4-(5,6-dihydro-4H-pyrrolo[3,2,1-ij]quinolin-1-yl)pyrimidin-2-yl)amino)-2-((1-(dimethylamino)-3-ethoxypropan-2-yl)oxy)-4-methoxyphenyl)acrylamide] |  | 100 to 500 | 100 to 500 | A (IC50 value for the indicated mutant below about 100 nM) | A (IC50 value for the indicated mutant below about 100 nM)

Continued, in another order:

IC50 [1] [nM] | IC50 [2] [nM] | IC50 [5] [nM] | Structure (SMILES) | EGFR exon 19 deletion and exon 20 T790M mutation IC50 [3] | EGFR exon 21 L858R and exon 20 T790M mutation IC50 [4]
< 100 | < 100 | 100 to 500 | C=CC(=O)Nc1cc(Nc2ncc(Cl)c(-c3cn4c5c(cccc35)CCC4)n2)c(OC)cc1N(C)CCN(C)C [Example 11, N-(5-((5-chloro-4-(5,6-dihydro-4H-pyrrolo[3,2,1-ij]quinolin-1-yl)pyrimidin-2-yl)amino)-2-((2-(dimethylamino)ethyl)(methyl)amino)-4-methoxyphenyl)acrylamide] | A (IC50 value for the indicated mutant below about 100 nM) | A (IC50 value for the indicated mutant below about 100 nM)
< 100 | < 100 | 100 to 500 | C=CC(=O)Nc1cc(Nc2ncc(CCC(C)(C)O)c(-c3cn4c5c(cccc35)CCC4)n2)c(OC)cc1N(C)CCN(C)C [Example 37, N-(5-((4-(5,6-dihydro-4H-pyrrolo[3,2,1-ij]quinolin-1-yl)-5-(3-hydroxy-3-methylbutyl)pyrimidin-2-yl)amino)-2-((2-(dimethylamino)ethyl)(methyl)amino)-4-methoxyphenyl)acrylamide] | A (IC50 value for the indicated mutant below about 100 nM) | B (IC50 value for the indicated mutant between about 100 to about 500 nM)
500 to 1000 | 100 to 500 | > 1000 | C=CC(=O)Nc1cc(Nc2ncc(CCC(N)=O)c(-c3cn4c5c(cccc35)CCC4)n2)c(OC)cc1N(C)CCN(C)C [Example 40, N-(5-((5-(3-amino-3-oxopropyl)-4-(5,6-dihydro-4H-pyrrolo[3,2,1-ij]quinolin-1-yl)pyrimidin-2-yl)amino)-2-((2-(dimethylamino)ethyl)(methyl)amino)-4-methoxyphenyl)acrylamide] | A (IC50 value for the indicated mutant below about 100 nM) | B (IC50 value for the indicated mutant between about 100 to about 500 nM)
< 100 | < 100 | 100 to 500 | C=CC(=O)Nc1cc(Nc2ncc(CC)c(-c3cn4c5c(cccc35)OCC4)n2)c(OC)cc1N(C)CCN(C)C [Example 1, N-(5-((4-(2,3-dihydro-[1,4]oxazino[2,3,4-hi]indol-6-yl)-5-ethylpyrimidin-2-yl)amino)-2-((2-(dimethylamino)ethyl)(methyl)amino)-4-methoxyphenyl)acrylamide] | A (IC50 value for the indicated mutant below about 100 nM) | A (IC50 value for the indicated mutant below about 100 nM)
100 to 500 | 100 to 500 | 500 to 1000 | C=CC(=O)Nc1cc(Nc2nccc(-c3cn4c5c(cccc35)OCC4)n2)c(OC)cc1N(C)CCNC [Example 105, N-(5-((4-(2,3-dihydro-[1,4]oxazino[2,3,4-hi]indol-6-yl)pyrimidin-2-yl)amino)-4-methoxy-2-(methyl(2-(methylamino)ethyl)amino)phenyl)acrylamide] | A (IC50 value for the indicated mutant below about 100 nM) | C (IC50 value for the indicated mutant between greater than about 500 to about 1 μM)
< 100 | < 100 | 100 to 500 | C=CC(=O)Nc1cc(Nc2ncc(C(O)CC)c(-c3cn4c5c(cccc35)CCC4)n2)c(OC)cc1N(C)CCN(C)C (stereo not shown) [Example 73, N-(5-((4-(5,6-dihydro-4H-pyrrolo[3,2,1-ij]quinolin-1-yl)-5-(1-hydroxypropyl)pyrimidin-2-yl)amino)-2-((2-(dimethylamino)ethyl)-(methyl)amino)-4-methoxyphenyl)acrylamide] | A (IC50 value for the indicated mutant below about 100 nM) | 
